Data on one compound can be found in US20050033056A1, “Hydroxylated indole derivatives and uses thereof” (priority 2001, published 2005).

Structures are written as SMILES.

This data set addresses CYP2D6 (Homo sapiens, UniProt P10635). The data set is described as follows: Compound 1 metabolism / metabolite formation by recombinant CYP2D6. It counts as in vitro ADME. Also on record: purchased Gentest Corp. (Woburn, Mass.); host or cells: insect cells (microsomal preparation). Here is the method:
The metabolism of Compound 1 was determined by the disappearance of Compound 1 or the appearance of Compound 1 metabolites in reaction mixtures as compared to respective controls. Compound 1 was incubated in the reconstituted in vitro reaction systems containing pooled human liver S9 fractions, microsomal preparations, or recombinant hepatic CYP forms, including CYP1A2, CYP2C9, CYP2C19, CYP2D6, CYP2E1, and CYP3A4. The reaction mixture (total volume of 250 μL) contained 0.5 mg of liver microsomal protein, 50 or 25 pmol of recombinant CYP, and Compound 1 (50-80 μM) in 50 mM Tris buffer containing 15 mM MgCl2 (pH 7.4). After incubating at 37° C. with gentle shaking for 1 minute, the reaction was initiated by adding 25 μL of NADPH solution (20 mg/mL), and was carried out for 1 hour. The reaction was terminated by quickly cooling the test tube on ice, followed by the addition of an equal volume of 100% methanol. The samples were centrifuged in a desktop centrifuge at 14,000 rpm for 5 minutes, and the supernatants were filtered through syringe filters (13 mm, 0.45 μm). The filtrates were subjected to analysis using LC/MS (ion trap) or LC/MS/MS.
1. LC/MS (LCQ ion trap mass spectrometer, Finnigan Corp., San Jose, Calif.): Hewlett Packard 1100 HPLC system (Waldbronn, Germany) consisted of a binary pump, an autosampler, a column compartment unit, and an online variable wavelength UV detector (VWD). The detector was monitored at 270 nm, which is the UVmax of Compound 1 predetermined by scanning between 225-400 nm using a photodiode array detector (PDA). The metabolites were separated on a Hewlett Packard Eclipse C18 column (150×2.1 mm). The mobile phases were 10 nmM ammonium acetate at pH 4.8 (A) and acetonitrile (B). The gradient (B) was 10% (0-6 minutes), 22% (12-22 minutes), 90% (25-30 minutes), and 10% (31 minutes and after). The flow rate was 0.25 mL/minute. Software Navigator (Version 1.2, Finnigan Corp.) was used to control the HPLC and MS and to acquire the data. […]

Chain of CYP2D6 (P10635 whole entry): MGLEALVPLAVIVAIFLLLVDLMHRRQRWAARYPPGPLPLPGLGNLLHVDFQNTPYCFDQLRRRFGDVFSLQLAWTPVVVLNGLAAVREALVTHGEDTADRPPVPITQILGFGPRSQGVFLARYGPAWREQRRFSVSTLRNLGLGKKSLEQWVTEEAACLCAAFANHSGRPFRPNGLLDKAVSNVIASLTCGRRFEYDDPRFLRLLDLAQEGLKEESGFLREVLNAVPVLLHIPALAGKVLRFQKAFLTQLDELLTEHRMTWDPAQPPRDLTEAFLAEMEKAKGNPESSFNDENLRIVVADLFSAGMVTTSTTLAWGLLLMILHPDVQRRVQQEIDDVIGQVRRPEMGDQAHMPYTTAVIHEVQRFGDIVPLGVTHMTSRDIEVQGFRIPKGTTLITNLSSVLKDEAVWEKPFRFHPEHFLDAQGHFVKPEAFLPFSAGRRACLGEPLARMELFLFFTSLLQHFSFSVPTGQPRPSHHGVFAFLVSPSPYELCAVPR

Regarding `CNC(=O)Cc1ccc2ccn(C3CCN(CCc4ccccc4F)CC3)c2c1` [Compound 1, N-methyl-[1-[1-(2-fluorophenethyl)piperidine-4-yl]-1H-indol-6-yl] acetamide], the “metabolism of Compound 1 by CYP2D6 (in words)” value (approximately 50 μM of Compound 1) is “metabolized”. In addition, the “Rel. Amount (%)” value (recombinant CYP2D6, estimated by UV absorbance at 270 nm, metabolite formed or Compound 1 left after 1 hour with NADPH) is 78%.
